These results are taken from patent US8168667B2 (Galapagos NV, priority 2006, dated 2012).

Like-named read-outs stand apart in the source and are kept apart here.

The test concerns the target T1, human androgen receptor (hAR) (Homo sapiens, UniProt P10275).
T1 sequence (P10275 1-920): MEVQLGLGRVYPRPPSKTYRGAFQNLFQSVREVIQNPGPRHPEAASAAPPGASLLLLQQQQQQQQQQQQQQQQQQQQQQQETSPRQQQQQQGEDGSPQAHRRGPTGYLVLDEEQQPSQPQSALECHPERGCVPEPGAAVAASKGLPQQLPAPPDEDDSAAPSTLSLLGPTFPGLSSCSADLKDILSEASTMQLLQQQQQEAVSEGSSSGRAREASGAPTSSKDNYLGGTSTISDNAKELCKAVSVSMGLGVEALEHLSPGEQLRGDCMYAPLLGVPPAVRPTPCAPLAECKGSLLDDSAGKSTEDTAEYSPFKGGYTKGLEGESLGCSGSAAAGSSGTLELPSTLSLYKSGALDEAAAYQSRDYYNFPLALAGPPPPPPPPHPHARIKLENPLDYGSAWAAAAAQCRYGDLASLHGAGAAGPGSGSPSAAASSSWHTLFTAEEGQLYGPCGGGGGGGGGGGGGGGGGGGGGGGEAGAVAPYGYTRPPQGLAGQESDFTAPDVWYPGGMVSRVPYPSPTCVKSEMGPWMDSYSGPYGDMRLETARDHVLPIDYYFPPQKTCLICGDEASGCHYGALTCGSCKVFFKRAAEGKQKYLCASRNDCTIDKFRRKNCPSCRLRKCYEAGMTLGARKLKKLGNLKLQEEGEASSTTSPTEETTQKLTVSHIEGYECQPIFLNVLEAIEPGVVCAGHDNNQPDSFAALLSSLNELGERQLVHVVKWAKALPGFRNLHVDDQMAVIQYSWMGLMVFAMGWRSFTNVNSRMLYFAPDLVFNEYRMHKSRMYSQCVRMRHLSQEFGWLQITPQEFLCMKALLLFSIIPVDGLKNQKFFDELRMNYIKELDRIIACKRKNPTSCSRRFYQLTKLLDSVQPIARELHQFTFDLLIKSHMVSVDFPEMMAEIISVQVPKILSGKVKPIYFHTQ
Nature of the test: Functional response test: hAR transactivation (luciferase reporter) in HALP2 cells. It is filed as cell-based. Conditions: for EC50: agonism, HALP2 cells (HeLa, hAR + ARE-luciferase), 20 hours at 37° C. An excerpt:
This test constitutes a method of identifying pure or partial agonists which mimic the effects of natural hormones, such as DHT (dihydrotestosterone) in the present case or, on the other hand, antagonists which inhibit them.
For this transactivation test, plasmids encoding a reporter gene and the human androgen receptor (hAR) are introduced together by transfection into the HeLa cell line. The reporter plasmid contains luciferase cDNA under the control of the AREs contained in the promoter sequences of the probasin gene (3xpbAREminicoll-luciferase/pGL3-puro). The expression of the reporter gene constitutes an indication of the transcriptional activity of hAR. It also encodes a protein allowing the cells expressing it to resist a treatment with puromycin. The plasmid encoding hAR contains the cDNA of hAR under the control of the Cytomegalovirus (CMV) promoter. It also encodes a protein allowing the cells expressing it to resist a treatment with neomycin. The treatment of cells with increasing amounts of potentially agonistic compounds will increase the expression of the reporter gene. To detect antagonists, on the other hand, increasing doses of test compounds are tested in the presence of […] of DHT. The expression of the reporter gene, which is constant for each dose of DHT, decreases when the concentration of the test compounds increases.
For this test, HeLa cells were obtained from the American Type Culture Collection (Rockville, Md.) and cultivated in DMEM medium containing 4.5 g/l of glucose, supplemented with Glutamax and with nonessential amino-acids and with 10% of foetal calf serum (SVF; Dominique Dutscher).
On the day before transfection, a million cells were seeded in DMEM medium without phenol red, supplemented with Glutamax and with desteroided SVF (5%) in Petri dishes. The cells were transfected with 4 μg of the puromycin resistance plasmids pcDNA3-hAR and 3xpbAREminicoll-luciferase/pGL3 using the reagent “Lipofectamine plus” (Invitrogen), following the supplier's recommendations. The day after transfection, the cells were seeded to different cell densities (10,000 to 100,000 cellules per Petri dish). Two days after transfection, the transfected cells were selected in DMEM medium without phenol red, supplemented with Glutamax and with desteroided SVF (5%) containing 400 μg/mL of G418 (Invitrogen) and 150 ng/mL of puromycin (Sigma). The culture medium was renewed weekly until resistant clones appeared. The resistant clones were removed and amplified before being tested for their functional response. […]
The functional response test was conducted on 96-well plates. The HALP2 cells were seeded (30,000 cells per well) 24 hours before the phase of stimulation in DMEM medium containing 4.5 g/L of glucose, supplemented with Glutamax and nonessential amino-acids, and with desteroided SVF (5%).
On the day of stimulation, the seeding medium was replaced by DMEM medium without phenol red, supplemented with Glutamax and with desteroided SVF (5%). […] The cells were placed in contact with the compounds for 20 hours at 37° C.

[1] abbreviates: antagonism, concentration which increases the EC50 of the DHT by a factor of 2, Schild regression, HALP2 cells.

As to `CN1C(=O)N(c2ccc(Cl)c3ccccc23)C(=O)C1(C)c1ccc(O)cc1` (stereo not shown) [Example 32, 1-(4-chloronaphthyl)-3,4-dimethyl-4-(4-hydroxyphenyl)imidazolidine-2,5-dione], the EC50 stood at 300 nM. Under setting [1], the “KSchild (nM) potency” value was determined as 300 nM.

In the case of `CN1C(=O)N(c2ccc(C#N)c3c2CCC3)C(=O)C1(C)c1ccc(O)cc1` (stereo not shown) [Example 33, 2,3-dihydro-7-[3,4-dimethyl-2,5-dioxo-4-(4-hydroxyphenyl)imidazolidin-1-yl]-4(1H)-indenenitrile], the “KSchild (nM) potency” value was 0.78 nM.

As to `CN1C(=O)N(c2ccc(C#N)c3c2CCCC3)C(=O)C1(C)c1ccc(O)cc1` (stereo not shown) [Example 34, 8-[3,4-dimethyl-2,5-dioxo-4-(4-hydroxyphenyl)imidazolidin-1-yl]-1,2,3,4-tetrahydro-5-naphthonitrile], the “KSchild (nM) potency” value came to 3.3 nM.

Take `CN1C(=O)N(c2ccc(C#N)c3c2OCCO3)C(=O)C1(C)c1ccc(O)cc1` (stereo not shown) [Example 35, 4-[3,4-dimethyl-2,5-dioxo-4-(4-hydroxyphenyl)imidazolidin-1-yl]-2,3-(1,2-ethylenedioxy)-benzonitrile]: the “KSchild (nM) potency” value stood at 36.34 nM.

For the molecule `Cc1cc(C#N)ccc1N1C(=O)N(C)C(C)(c2ccc(O)cc2)C1=O` (stereo not shown) [Example 36, 4-[3,4-dimethyl-2,5-dioxo-4-(4-hydroxyphenyl)imidazolidin-1-yl]-3-methylbenzonitrile], the “KSchild (nM) potency” value was 69.28 nM.

On to `CCc1cc(C#N)ccc1N1C(=O)N(C)C(C)(c2ccc(O)cc2)C1=O` (stereo not shown) [Example 37, 4-[3,4-dimethyl-2,5-dioxo-4-(4-hydroxyphenyl)imidazolidin-1-yl]-3-ethylbenzonitrile], for which the “KSchild (nM) potency” value is listed as 24.49 nM.

Turning to `Cc1c(N2C(=O)N(C)C(C)(c3ccc(O)cc3)C2=O)ccc(C#N)c1C(F)(F)F` (stereo not shown) [Example 38, 4-[3,4-dimethyl-2,5-dioxo-4-(4-hydroxyphenyl)imidazolidin-1-yl]-3-methyl-2-trifluoromethylbenzonitrile], the “KSchild (nM) potency” value came to 3 nM.

Regarding `C=CCN1C(=S)N(c2ccc(Cl)c(Cl)c2)C(=O)C1(C)c1ccc(O)cc1` (stereo not shown) [Example 40, 1-(3,4-dichlorophenyl)-4-(4-hydroxyphenyl)-4-methyl-3-(2-propenyl)-2-thioxoimidazolidin-5-one], the EC50 was determined as 3.46 nM. In addition, the “KSchild (nM) potency” value under setting [1] was determined as 1.41 nM.

In the case of `C#CCN1C(=S)N(c2ccc(Cl)c(Cl)c2)C(=O)C1(C)c1ccc(O)cc1` (stereo not shown) [Example 41, 1-(3,4-dichlorophenyl)-4-(4-hydroxyphenyl)-4-methyl-3-(2-propynyl)-2-thioxoimidazolidin-5-one], the EC50 was determined as 25.3 nM. Further, under setting [1], the “KSchild (nM) potency” value was 15.49 nM.

For the molecule `CC1(c2ccc(O)cc2)C(=O)N(c2ccc(Cl)c(Cl)c2)C(=S)N1CCC#N` (stereo not shown) [Example 42, 3-[1-(3,4-dichlorophenyl)-4-(4-hydroxyphenyl)-4-methyl-5-oxo-2-thioxoimidazolidin-3-yl]-propionitrile], the EC50 stood at 8 nM. Further, the “KSchild (nM) potency” value under setting [1] came to 4.9 nM.

In the case of `CN1C(=S)N(c2ccc(C#N)c(C(F)(F)F)c2)C(=O)C1(C)c1ccc(O)cc1` (stereo not shown) [Example 44, 4-[3,4-dimethyl-4-(4-hydroxyphenyl)-5-oxo-2-thioxoimidazolidin-1-yl]-2-trifluoromethylbenzonitrile], the “KSchild (nM) potency” value came out at 4 nM.

Consider `CN1C(=O)N(c2ccc([N+](=O)[O-])c(C(F)(F)F)c2)C(=O)C1c1ccc(O)cc1` (stereo not shown) [Example 45], for which the “KSchild (nM) potency” value is given as 100 nM.

As to `CN1C(=O)N(c2ccc(F)c(F)c2)C(=O)C1c1ccc(O)cc1` (stereo not shown) [Example 46], the EC50 is 77.5 nM. Under setting [1], the “KSchild (nM) potency” value was 77.46 nM.

Regarding `CN1C(=O)N(c2ccc(Cl)c(C(F)(F)F)c2)C(=O)C1c1ccc(O)cc1` (stereo not shown) [Example 47], the “KSchild (nM) potency” value was determined as 48.99 nM.

Regarding `CN1C(=O)N(c2ccc(F)c(C(F)(F)F)c2)C(=O)C1c1ccc(O)cc1` (stereo not shown) [Example 48], the EC50 was 60 nM. Further, the “KSchild (nM) potency” value under setting [1] worked out at 48.99 nM.

For the molecule `CN1C(=O)N(c2ccc(F)c(Cl)c2)C(=O)C1c1ccc(O)cc1` (stereo not shown) [Example 49], the EC50 is 69.3 nM. Moreover, the “KSchild (nM) potency” value under setting [1] is 42.43 nM.

Regarding `CN1C(=O)N(c2ccc([N+](=O)[O-])cc2)C(=O)C1c1ccc(O)cc1` (stereo not shown) [Example 50], the “KSchild (nM) potency” value is 9.9 nM.

Turning to `O=C1C(c2ccc(O)cc2)N(Cc2ccsc2)C(=O)N1c1ccc(F)c(Cl)c1` (stereo not shown) [Example 51], the EC50 stood at 15 nM. Besides, under setting [1], the “KSchild (nM) potency” value was 15 nM.

For the molecule `O=C1C(c2ccc(O)cc2)N(Cc2ccsc2)C(=O)N1c1ccc([N+](=O)[O-])cc1` (stereo not shown) [Example 53], the “KSchild (nM) potency” value is 9.74 nM.

On to `CCCN1C(=O)N(c2ccc([N+](=O)[O-])c(C(F)(F)F)c2)C(=O)C1c1ccc(O)cc1` (stereo not shown) [Example 54], for which the “KSchild (nM) potency” value under setting [1] is 200 nM.

On to `CCCN1C(=O)N(c2ccc(Cl)c(Cl)c2)C(=O)C1c1ccc(O)cc1` (stereo not shown) [Example 55], for which the EC50 stood at 54.8 nM. Further, the “KSchild (nM) potency” value under setting [1] is listed as 34.64 nM.

For `CCCN1C(=O)N(c2ccc(F)c(F)c2)C(=O)C1c1ccc(O)cc1` (stereo not shown) [Example 56], the EC50 came out at 34.6 nM. Moreover, the “KSchild (nM) potency” value under setting [1] stood at 34.64 nM.

With `CCCN1C(=O)N(c2ccc(Cl)c(C(F)(F)F)c2)C(=O)C1c1ccc(O)cc1` (stereo not shown) [Example 57], the “KSchild (nM) potency” value came to 34.64 nM.

With `CCCN1C(=O)N(c2cccc(C(F)(F)F)c2)C(=O)C1c1ccc(O)cc1` (stereo not shown) [Example 59], the concentration giving a half-maximal response (EC50) worked out at 69.3 nM. Besides, the “KSchild (nM) potency” value under setting [1] is reported as 69.28 nM.

Take `CCCN1C(=O)N(c2ccc(C#N)c(C(F)(F)F)c2)C(=O)C1c1ccc(O)cc1` (stereo not shown) [Example 60]: the “KSchild (nM) potency” value amounted to 21.21 nM.

Turning to `C=CCN1C(=O)N(c2ccc(Cl)c(C(F)(F)F)c2)C(=O)C1c1ccc(O)cc1` (stereo not shown) [Example 61], the half-maximal effective concentration (EC50) amounted to 34.6 nM. The “KSchild (nM) potency” value under setting [1] stood at 34.64 nM.

For `C=CCN1C(=O)N(c2ccc(F)c(C(F)(F)F)c2)C(=O)C1c1ccc(O)cc1` (stereo not shown) [Example 62], the EC50 came to 34.6 nM. The “KSchild (nM) potency” value under setting [1] came to 34.64 nM.

Regarding `C=CCN1C(=O)N(c2ccc(F)c(Cl)c2)C(=O)C1c1ccc(O)cc1` (stereo not shown) [Example 63], the EC50 came to 69.3 nM. For the same molecule, under setting [1], the “KSchild (nM) potency” value came to 69.28 nM.

For `C=CCN1C(=O)N(c2cccc(C(F)(F)F)c2)C(=O)C1c1ccc(O)cc1` (stereo not shown) [Example 64], the EC50 was determined as 26.2 nM. The “KSchild (nM) potency” value under setting [1] is 26.21 nM.

Consider `C=CCN1C(=O)N(c2ccc([N+](=O)[O-])cc2)C(=O)C1c1ccc(O)cc1` (stereo not shown) [Example 65], for which the “KSchild (nM) potency” value came to 5.43 nM.

`C#CCN1C(=O)N(c2ccc(Cl)c(Cl)c2)C(=O)C1c1ccc(O)cc1` (stereo not shown) [Example 66]: the EC50 was determined as 24.5 nM. Besides, the “KSchild (nM) potency” value under setting [1] is 21.21 nM.

In the case of `C#CCN1C(=O)N(c2ccc(F)c(F)c2)C(=O)C1c1ccc(O)cc1` (stereo not shown) [Example 67], the EC50 turned out to be 49 nM. In addition, the “KSchild (nM) potency” value under setting [1] is on record as 48.99 nM.
